Converted amounts (≈) assume the structure as drawn.
What was measured:
adenosine deaminase = adenosine deaminase (Homo sapiens, UniProt P00813); details: Tetrahedron Letters, 21, 1980, 327-330; cited from earlier work
[1] = tested on: herpes simplex virus type 1; experiment: Comparative in vivo activity against herpetic encephalitis in mice (Example 18); design: species or system CD.1 mice; details: for Mean reciprocal survival time: 100 mg/kg/dose twice daily for 4½ days, 300 LD50
Description: CD.1 mice weighing 16 - 20 gm were obtained from Charles River, Manston, Kent, U.K. The animals were housed in groups of approximately 10 and were given food and water ad lib.
The compounds namely acyclovir, 134U, 759U and 457U, were prepared as suspensions or solutions in sterile water at a concentration of 20 mg/ml prior to each experiment, and were stored at 4°C during the dosing period.
The ICI strain of herpes simplex virus type 1 was used for all experiments at a concentration of 300 LD50 (10^5 pfu)/ml). Dilutions from virus stocks ([…]) were prepared in PBS 'A'.
The test procedure is analoguous to that described in Example 13.
Three experiments were performed, in which three routes of compound administration were examined: i) subcutaneous, ii) oral and iii) intraperitoneal. […]

[2] = tested on: EHV-1 Pneumabort vaccine strain; experiment: Comparative in vivo activity against equine rhinopneumonitis virus in hamsters, medicated drinking water (Example 15); design: species or system Syrian hamsters; details: for Cumulative mortality (out of 15) on day: water conc. 0.075 mg/ml, average intake 6.6-6.8 mg/kg/day
Description: 50 male WO/CR Syrian hamsters were caged randomly in 10 groups of 5, with water and food (seed mix) ad lib. Hamsters were weighed on Days -3, 0, 4, and/or- at death/sacrifice. Water consumption was recorded over Days -3 to 0 to 4.
EHV-1 Pneumabort vaccine strain stored as a 10^-1 dilution, was further diluted 10^-1 in PBS for infection. On Day 0, hamsters in Groups 1-9 received 0.2 ml virus inoculum s/c in the left flank equivalent to about 2 x 10^5 PFU (plaque-forming units).
457U and 759U were dissolved in drinking water at 0.075 mg/ml. Assuming an average daily intake of […], this would result in a daily dose of around 10 mg/kg. Medicated water was provided from approximately 5 hours pre-infection for 96 hours, as below
The drug intake was calculated from the weight of the animals and the water consumption recorded over the period of the experiment.

Solubility in water = assay type: physicochemical
Description: As mentioned above, the compounds of formula (I) have the important advantage of having a greater solubility in water than acyclovir. Thus, the compounds of formula (I) wherein X is an oxygen atom and R is a hydroxy group or amino group have solubilities of 0.4 -.0.5% and 2 - 3% w/w respectively compared with a figure of 0.14% w/w for acyclovir.

adenosine deaminase, sequence (P00813 whole entry): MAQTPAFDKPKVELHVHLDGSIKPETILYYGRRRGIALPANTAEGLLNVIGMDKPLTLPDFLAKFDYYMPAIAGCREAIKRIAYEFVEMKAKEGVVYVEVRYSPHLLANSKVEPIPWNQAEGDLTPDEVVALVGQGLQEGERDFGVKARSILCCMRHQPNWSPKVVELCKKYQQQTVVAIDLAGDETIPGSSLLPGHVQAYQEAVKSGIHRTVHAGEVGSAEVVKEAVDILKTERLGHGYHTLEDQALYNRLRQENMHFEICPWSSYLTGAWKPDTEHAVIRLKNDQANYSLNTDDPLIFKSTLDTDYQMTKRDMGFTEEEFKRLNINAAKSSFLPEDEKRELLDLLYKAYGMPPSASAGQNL

SMILES	competitive inhibition of the enzyme (adenosine deaminase)	substrate for the enzyme (adenosine deaminase)	Mean reciprocal survival time ([1]; Oral)	Mean reciprocal survival time ([1]; i.p.)	Mean reciprocal survival time ([1]; s.c.)	antiviral effect compared with acyclovir and 134U ([1]; any of the three routes, difference highly significant)	deaths from virus-induced hepatitis ([2]; in 15 treated hamsters, 14 deaths in 15 untreated controls)	prevention of EHV-1 induced mortality ([2]; orally in drinking water, approximately 7 mg/kg/day)	Cumulative mortality (out of 15) on day ([2]; day 2)	Cumulative mortality (out of 15) on day ([2]; day 3)	Cumulative mortality (out of 15) on day ([2]; day 4+)	solubility (Solubility in water)
Nc1ncnc2c1ncn2COC(CO)CO	weak competitive inhibitor	poor substrate										
Nc1nc(N)c2ncn(COCCO)c2n1 [Example 134U, 2-amino-9-(2-hydroxy-methoxymethyl) adenine, reference compound]			0.222	0.231	0.226							
Nc1nc(N)c2ncn(COC(CO)CO)c2n1 [Example 457U, 9-[(2-hydroxy-1-hydroxymethylethoxy)methyl]-2,6-diaminopurine]			0.155	0.077	0.102	greatest antiviral effect	1	almost completely prevented	0	1	1	20 to 30 mg/mL (≈ 78.7 to 118 mM)
